Reference: ChEMBL document CHEMBL1201862, “PubChem BioAssay data set” (2004)
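A five-concentration, 48-hour dose response in 96-well plates underlies each endpoint, interpolated linearly between surrounding concentrations. GI50 = concentration required for 50% inhibition of growth.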 Activity calls are given as the source filed them. No stated cut-off is given here; in the data, active = GI50 up to about 1.1 µM and inactive = higher.

What was measured:
Assay in all cases: inhibition of tumour cell growth, NCI panel, 48 h
KM-20L2 = system: KM-20L2
SNB-78 = system: SNB-78
DMS-273 = system: DMS-273
M19-MEL = system: M19-MEL
HOP-18 = system: HOP-18
XF498 = system: XF498
LXFL 529 = system: LXFL 529
RXF 631 = system: RXF 631
BT-549 = system: BT-549

C[N+](C)(C)CC1CCC/C1=N/O (stereo not given)
GI50 (KM-20L2): 17.8 µM (inactive) | GI50 (SNB-78): > 100 µM (inactive) | GI50 (DMS-273): 60.7 µM (inactive) | GI50 (M19-MEL): 41 µM (inactive) | GI50 (HOP-18): > 100 µM (inactive) | GI50 (XF498): 1.68 µM (inactive) | GI50 (LXFL 529): 54.5 µM (inactive)

CO[C@@]1(c2ccccc2)O[C@H]2OCCC2[C@H]1c1ccc(Cl)cc1 (stereo not given in full)
GI50 (KM-20L2): 32.1 µM (inactive) | GI50 (SNB-78): 45.1 µM (inactive) | GI50 (DMS-273): 39.5 µM (inactive) | GI50 (RXF 631): 29.4 µM (inactive) | GI50 (HOP-18): 22.9 µM (inactive) | GI50 (XF498): 25 µM (inactive) | GI50 (LXFL 529): 27.9 µM (inactive)

CCCCCCCCCCCCCC(=O)CBr
GI50 (KM-20L2): 15.6 µM (inactive) | GI50 (SNB-78): 14.2 µM (inactive) | GI50 (DMS-273): > 10 µM (inactive) | GI50 (RXF 631): 16.3 µM (inactive) | GI50 (M19-MEL): 9.25 µM (inactive) | GI50 (BT-549): 8.71 µM (inactive) | GI50 (HOP-18): 14.7 µM (inactive) | GI50 (LXFL 529): 3.72 µM (inactive)

Cc1cc(N(CCC#N)CCC#N)ccc1/C=C\C(=O)Nc1ccccc1
GI50 (KM-20L2): 1.07 µM (active) | GI50 (DMS-273): 59.2 µM (inactive) | GI50 (RXF 631): > 100 µM (inactive) | GI50 (M19-MEL): 36.7 µM (inactive) | GI50 (XF498): > 100 µM (inactive) | GI50 (LXFL 529): 0.859 µM (active)

C/C(CN1C(=O)c2ccccc2C1=O)=N\NS(=O)(=O)c1cccc(C(=O)O)c1
GI50 (KM-20L2): > 100 µM (inactive) | GI50 (SNB-78): > 100 µM (inactive) | GI50 (DMS-273): > 100 µM (inactive) | GI50 (RXF 631): > 100 µM (inactive) | GI50 (M19-MEL): > 100 µM (inactive) | GI50 (HOP-18): > 100 µM (inactive) | GI50 (XF498): > 100 µM (inactive) | GI50 (LXFL 529): > 100 µM (inactive)

CC1(OCc2ccccc2)C(=O)N2C1NCC2(C)C (stereo not given)
GI50 (KM-20L2): > 100 µM (inactive) | GI50 (DMS-273): > 100 µM (inactive) | GI50 (RXF 631): > 100 µM (inactive) | GI50 (M19-MEL): > 100 µM (inactive) | GI50 (XF498): > 100 µM (inactive) | GI50 (LXFL 529): > 100 µM (inactive)

NCCCNCCCCN(CCCN)/[N+]([O-])=N\O
GI50 (KM-20L2): > 100 µM (inactive) | GI50 (SNB-78): > 100 µM (inactive) | GI50 (DMS-273): > 100 µM (inactive) | GI50 (RXF 631): > 100 µM (inactive) | GI50 (M19-MEL): > 100 µM (inactive) | GI50 (HOP-18): > 100 µM (inactive) | GI50 (LXFL 529): > 100 µM (inactive)

Cc1cc(C)c(C(=O)O)c(SSc2cc(C)cc(C)c2C(=O)O)c1
GI50 (KM-20L2): > 100 µM (inactive) | GI50 (SNB-78): > 100 µM (inactive) | GI50 (DMS-273): > 100 µM (inactive) | GI50 (RXF 631): > 100 µM (inactive) | GI50 (M19-MEL): > 100 µM (inactive) | GI50 (XF498): > 100 µM (inactive) | GI50 (LXFL 529): > 100 µM (inactive)

Cc1c(-c2cc(-c3ccccc3)n[nH]c2=O)c2ccccc2n1C
GI50 (KM-20L2): > 100 µM (inactive) | GI50 (SNB-78): > 100 µM (inactive) | GI50 (DMS-273): > 100 µM (inactive) | GI50 (M19-MEL): > 100 µM (inactive) | GI50 (HOP-18): 71.3 µM (inactive) | GI50 (XF498): > 100 µM (inactive) | GI50 (LXFL 529): > 100 µM (inactive)

O=C(CC(=O)C(=O)Nc1ccccc1)CC(c1ccccc1)c1c(O)c2ccccc2oc1=O (stereo not given)
GI50 (KM-20L2): > 100 µM (inactive) | GI50 (DMS-273): > 100 µM (inactive) | GI50 (RXF 631): > 100 µM (inactive) | GI50 (M19-MEL): > 100 µM (inactive) | GI50 (HOP-18): > 100 µM (inactive)

C=C1C(OC(=O)/C=C/c2ccccc2)CC(OC(C)=O)C2(C)C1CC1CC(OC(C)=O)C(C)=C(C(OC(C)=O)C2OC(C)=O)C1(C)C (stereo not given)
GI50 (KM-20L2): > 100 µM (inactive) | GI50 (SNB-78): > 100 µM (inactive) | GI50 (DMS-273): 4.2 µM (inactive) | GI50 (RXF 631): > 100 µM (inactive) | GI50 (M19-MEL): > 100 µM (inactive) | GI50 (HOP-18): > 100 µM (inactive) | GI50 (LXFL 529): 8.36 µM (inactive)

Cc1cc(C)nc(NS(=O)(=O)c2ccc(NC(=O)c3ccc(Cl)c4c(Nc5ccc(S(=O)(=O)Nc6cc(C)on6)cc5)c5ccccc5nc34)cc2)n1
GI50 (KM-20L2): 18.5 µM (inactive) | GI50 (SNB-78): 13.9 µM (inactive) | GI50 (DMS-273): 17.4 µM (inactive) | GI50 (RXF 631): 17.7 µM (inactive) | GI50 (M19-MEL): 21 µM (inactive) | GI50 (HOP-18): 15.7 µM (inactive) | GI50 (LXFL 529): 16.8 µM (inactive)

CSc1nc(SC)c2c(C#N)n[nH]c2n1
GI50 (KM-20L2): > 100 µM (inactive) | GI50 (SNB-78): > 100 µM (inactive) | GI50 (DMS-273): > 100 µM (inactive) | GI50 (RXF 631): > 100 µM (inactive) | GI50 (M19-MEL): > 100 µM (inactive) | GI50 (XF498): > 100 µM (inactive)
